Test results as given in USRE48175E1, “Hydrophobically tagged small molecules as inducers of protein degradation” (Dana-Farber Cancer Institute, Inc., priority 2012, dated 2020).

Experiments:
[1] = molecular target: T1, ErbB3(667-1053) protein (Her3) (Homo sapiens, UniProt P21860); assay: LanthaScreen Eu kinase binding assay (Her3 ATP-site binding); conditions: binding to the ATP-site of Her3
T1 construct: Purified ErbB3(667-1053) protein was obtained from Invitrogen; purchased Invitrogen
T1 sequence (P21860 667-1053): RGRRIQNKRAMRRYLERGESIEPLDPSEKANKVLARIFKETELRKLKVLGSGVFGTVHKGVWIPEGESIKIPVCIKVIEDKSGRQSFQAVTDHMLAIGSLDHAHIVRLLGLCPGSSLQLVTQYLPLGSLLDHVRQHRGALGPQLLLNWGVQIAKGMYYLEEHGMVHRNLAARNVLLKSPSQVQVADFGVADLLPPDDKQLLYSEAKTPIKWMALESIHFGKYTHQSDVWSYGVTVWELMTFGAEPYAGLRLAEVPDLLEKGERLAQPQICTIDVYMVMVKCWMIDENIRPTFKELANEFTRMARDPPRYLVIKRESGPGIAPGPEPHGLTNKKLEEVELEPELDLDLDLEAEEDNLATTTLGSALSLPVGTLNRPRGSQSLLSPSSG
Experimental: To discover chemical starting points for developing Her3 inhibitors, the inventors screened a library of 1,500 kinase-directed compounds using the LanthaScreen™ Eu methodology for compounds that could bind to the ATP-site of Her3. […] See, e.g., Stachlewitz et al., J Pharmacol Exp Ther. (2005) 315:36-41.
FIG. 2 depicts binding affinity data for exemplary compounds of Formula (II). Binding affinity (IC50) was measured by Invitrogen LanthaScreen™ Eu kinase binding assay which is based on the binding and displacement of Alexa Fluor 647 labeled ATP-competitive kinase inhibitor scaffold (Kinase Tracer 178). Binding of the tracer to the kinase is detected using a europium-labeled anti-tag antibody (anti-GST). The binding of both the tracer and antibody to the kinase results in a high degree of FRET (fluorescenece resonance energy transfer) from the europium donor fluorophore to the Alexa Fluor 647 acceptor fluoropore on the kinase tracer. […] This centrifugation step will eliminate spurious data points that can arise on occasion due to any particulates in the product. • (3) Add 5 ul the mixture of ErbB3 protein and Eu-anti-GST to 5 ul test compound solution per well in coming 384 plates. • (4) Add 5 ul tracer 178 at concentration of 39 nM per well. • (5) Incubate for 3 hours at 4° C. and read plate with Perkin Elmer EnVision. […]

[2] = tested on: downstream effectors of Her3, such as Erk and Akt; assay: Phosphorylation of downstream effectors of Her3 (Erk, Akt) in cells; type: cell-based; conditions: TX2-62-1 formed inside the cell from TX2-49-1 and TX2-57-1 via oxime formation
Experimental: (§1) Without wishing to be bound by any particular theory, the inventors hypothesize that this lack of inhibition is the result of poor cell penetration of TX2-62-1 due to its high molecular weight (MW=828.5). The inventors tested this hypothesis by designing a strategy whereby the two halves of TX2-62-1 (TX2-49-1 and TX2-57-1) were brought together inside of a cell via oxime formation. See Scheme 1 below.
(§2) PC9 Gefitinib Resistant 4 (GR4) cells were cultured in 60 mm plate with 10% fetal bovine serum (FBS), Roswell Park Memorial Institute medium (RPMI) medium. When the confluence reached 80%, cells were treated with compounds in indicated concentration. After 4 hours, wash cells with medium for three times. Cells were cultured for another 4 hours, followed by 3 times PBS washes. Cells were lysed with lysis buffer (25 mM Tris-HCl pH 7.4, 150 mM NaCl, 1 mM EDTA, 1% NP-40, 5% glycerol, Roche PhosSTOP phosphatase inhibitor cocktail tablets and Roche Complete Protease inhibitor cocktail tablets). […]
(§3) With the spectrophotometer set to 562 nm, zero the instrument on a cuvette filled only with water. Subsequently, measure the absorbance of all the samples with 10 minutes. Subtract the average 562 nm absorbance measurement of the Blank standard replicates from the 562 nm absorbance measurement of all other individual standard and unknown sample replicates. […]

Her3-addicted cells = assay: Her3-dependent growth / viability of Her3-addicted cells; type: cell-based
Text: as §1
FIG. 3 depicts anti-proliferation data for exemplary compounds of Formula (II). The anti-proliferation assay was carried out by using 96 well white bottom plates. 2000-4000 cells were seeded per well, and the medium volume per well was about 100 ul. Incubate for 3 days after adding and titrating indicated concentration of compounds. The cell viability was test by CellTiter-Glo® Luminescent Assay. In a typical experiment, add 10 ul CellTiter-Glo® reagent per well. Mix and shake the plate for 2 minutes to induce cell lysis at room temperature. Allow the plate to incubate at room temperature for approximately 10 minutes to stabilize luminescent signal. Read plate with Perkin Elmer EnVision. The cell numbers were normalized by the DMSO control. And the EC50s were calculated by GraphPad Prism.

Her3 = molecular target: T2, Her3 (Homo sapiens, UniProt P21860); assay: Her3 protein degradation in cells; type: cell-based
T2 construct: endogenous in cells; host or cells: PC9 GR4
Experimental: as §1, §2, §3

[3] = TX2-62-1 formed inside the cell from TX2-49-1 and TX2-57-1 via oxime formation

T2 sequence (P21860 20-1342): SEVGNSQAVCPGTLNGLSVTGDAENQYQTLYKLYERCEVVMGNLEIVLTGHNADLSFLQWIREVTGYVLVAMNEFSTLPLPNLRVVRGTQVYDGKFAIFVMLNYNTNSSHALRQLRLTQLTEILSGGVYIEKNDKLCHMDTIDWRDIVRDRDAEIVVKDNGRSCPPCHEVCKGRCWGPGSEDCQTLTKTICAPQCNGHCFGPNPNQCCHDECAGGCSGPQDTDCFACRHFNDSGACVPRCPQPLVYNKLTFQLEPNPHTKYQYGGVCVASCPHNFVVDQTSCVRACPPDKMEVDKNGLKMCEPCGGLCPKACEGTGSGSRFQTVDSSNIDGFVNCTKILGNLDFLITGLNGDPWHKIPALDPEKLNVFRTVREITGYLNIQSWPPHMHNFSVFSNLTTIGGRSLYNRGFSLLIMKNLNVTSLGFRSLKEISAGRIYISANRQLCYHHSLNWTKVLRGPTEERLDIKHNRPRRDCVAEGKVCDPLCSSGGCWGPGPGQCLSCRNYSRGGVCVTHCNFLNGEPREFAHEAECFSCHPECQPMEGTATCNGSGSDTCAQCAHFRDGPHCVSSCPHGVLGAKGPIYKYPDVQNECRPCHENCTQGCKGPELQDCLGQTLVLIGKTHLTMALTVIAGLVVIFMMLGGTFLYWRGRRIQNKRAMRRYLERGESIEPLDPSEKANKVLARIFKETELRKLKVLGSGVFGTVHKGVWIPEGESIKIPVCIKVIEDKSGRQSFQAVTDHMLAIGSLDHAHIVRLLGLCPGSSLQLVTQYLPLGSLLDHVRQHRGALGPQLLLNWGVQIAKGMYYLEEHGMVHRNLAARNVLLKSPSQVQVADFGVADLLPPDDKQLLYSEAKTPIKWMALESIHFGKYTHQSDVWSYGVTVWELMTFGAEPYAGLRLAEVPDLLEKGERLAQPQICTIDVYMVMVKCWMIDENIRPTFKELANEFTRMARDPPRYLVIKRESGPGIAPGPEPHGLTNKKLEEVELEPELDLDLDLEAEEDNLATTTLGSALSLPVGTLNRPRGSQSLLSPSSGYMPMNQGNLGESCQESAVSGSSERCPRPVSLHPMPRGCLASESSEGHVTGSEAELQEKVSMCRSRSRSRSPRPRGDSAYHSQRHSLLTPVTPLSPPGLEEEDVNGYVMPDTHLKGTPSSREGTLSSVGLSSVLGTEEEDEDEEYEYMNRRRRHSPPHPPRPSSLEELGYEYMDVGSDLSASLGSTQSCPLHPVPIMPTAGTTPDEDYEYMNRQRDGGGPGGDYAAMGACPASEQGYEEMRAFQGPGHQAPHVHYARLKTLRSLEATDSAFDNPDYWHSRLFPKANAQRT

degradation of Her3 (Her3; [3])	Her3 protein level after washout (Her3; after TX2-62-1 was washed out)	SMILES	Her3 binding [1]	inhibition of Her3-dependent signaling [2]	viability of Her3-addicted cells (Her3-addicted cells; [3])	cell proliferation after washout (Her3-addicted cells; after TX2-62-1 was washed out)	inhibition of Her3-dependent growth (Her3-addicted cells; compound added as preformed molecule)
		COc1cc(-c2nn(C3CCC(N4CCN(C(C)=O)CC4)CC3)c3ncnc(N)c23)ccc1NC(=O)c1cc2ccccc2n1C (centres unmarked) [KIN001-111, reference compound]	most potent Her3 binder				
efficient degradation of Her3	Her3 protein was resynthesized	C=CC(=O)Nc1cc(-c2nn(C3CCC(N4CCN(C/C(C)=N/OCCNC(=O)CC5C6CC7CC(C6)CC5C7)CC4)CC3)c3ncnc(N)c23)ccc1Oc1ccccc1 (centres unmarked) [TX2-62-1]	maintained potent and covalent Her3 binding ability	inhibition of Her3-dependent signaling	loss of viability of Her3-addicted cells	cell proliferation resumed	did not inhibit Her3-dependent growth
